In PubChem BioAssay AID1919004 (Molecular Pharmacology Branch, DTP, NCI, 2023):

System: 883617-216-R-J1-PDC complex spheroids, growth, % test/control
Test: Anticancer human tumor 883617-216-R-J1-PDC patient-derived bladder carcinoma cell line growth inhibition [AhR]
Settings: for IC50: curve of first compound; for viability, T/C: stronger effect = lower value
Method in brief: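 Agents were dosed in half-log steps down from roughly clinical Cmax, or from 10 microM where Cmax was unknown, alone and with AhR antagonists. Read-out: percent test/control growth of tumor spheroids containing HUVEC and MSC stromal cells.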

[1] = second compound 0.1 µM, first compound 0.0316 µM
[2] = second compound 0.1 µM, first compound 0.1 µM
[3] = second compound 0.1 µM, first compound 0.316 µM
[4] = second compound 0.1 µM, first compound 1 µM
[5] = second compound 0.1 µM, first compound 3.16 µM
[6] = second compound 0.1 µM, first compound 10 µM
[7] = second compound 0.316 µM, first compound 0.0316 µM
[8] = second compound 0.316 µM, first compound 0.1 µM
[9] = second compound 0.316 µM, first compound 0.316 µM
[10] = second compound 0.316 µM, first compound 1 µM
[11] = second compound 0.316 µM, first compound 3.16 µM
[12] = second compound 0.316 µM, first compound 10 µM
[13] = second compound 1 µM, first compound 0.0316 µM
[14] = second compound 1 µM, first compound 0.1 µM
[15] = second compound 1 µM, first compound 0.316 µM
[16] = second compound 1 µM, first compound 1 µM
[17] = second compound 1 µM, first compound 3.16 µM
[18] = second compound 1 µM, first compound 10 µM
[19] = second compound 3.16 µM, first compound 0.0316 µM
[20] = second compound 3.16 µM, first compound 0.1 µM
[21] = second compound 3.16 µM, first compound 0.316 µM
[22] = second compound 3.16 µM, first compound 1 µM
[23] = second compound 3.16 µM, first compound 3.16 µM
[24] = second compound 3.16 µM, first compound 10 µM
[25] = second compound 10 µM, first compound 0.0316 µM
[26] = second compound 10 µM, first compound 0.1 µM
[27] = second compound 10 µM, first compound 0.316 µM
[28] = second compound 10 µM, first compound 1 µM
[29] = second compound 10 µM, first compound 3.16 µM
[30] = second compound 10 µM, first compound 10 µM
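Also: exposure lasted 7 days after dosing on day 3 of spheroid growth.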

Work on COc1cc(Nc2ncc3c(n2)-c2ccc(Cl)cc2C(c2c(F)cccc2OC)=NC3)ccc1C(=O)O + CC(CO)NC(=O)c1cc(-c2ccc(Cl)cc2)nn(-c2cnn(C)c2)c1=O yielded an IC50 (second compound 0.1 µM) greater than 10000 nM, an IC50 (second compound 0.316 µM) greater than 10000 nM and an IC50 (second compound 1 µM) greater than 10000 nM. The IC50 (second compound 3.16 µM) was greater than 10000 nM, the IC50 (second compound 10 µM) was greater than 10000 nM and the viability, T/C [1] was 140%. It also gave a viability, T/C [2] of 128%, a viability, T/C [3] of 77.8% and a viability, T/C [4] of 97%. It also gave a viability, T/C [5] of 86.6%, a viability, T/C [6] of 120% and a viability, T/C [7] of 128%. The viability, T/C [8] was 85%, the viability, T/C [9] was 80.5% and the viability, T/C [10] was 87%. The viability, T/C [11] was 60.8%, the viability, T/C [12] was 95.6% and the viability, T/C [13] was 124%. It also gave a viability, T/C [14] of 123%, a viability, T/C [15] of 93.3% and a viability, T/C [16] of 48.3%. The viability, T/C [17] was 103%, the viability, T/C [18] was 101% and the viability, T/C [19] was 77%. For the same compound, the viability, T/C [20] was 103%, the viability, T/C [21] was 135% and the viability, T/C [22] was 105%. It also gave a viability, T/C [23] of 70.9%, a viability, T/C [24] of 70.6% and a viability, T/C [25] of 130%. It also gave a viability, T/C [26] of 71%, a viability, T/C [27] of 121% and a viability, T/C [28] of 125%. For the same compound, the viability, T/C [29] was 71.7% and the viability, T/C [30] was 88.4%.

Cn1ncnc1C1c2n[nH]c(=O)c3cc(F)cc(c23)NC1c1ccc(F)cc1 (stereo not given) + CC(CO)NC(=O)c1cc(-c2ccc(Cl)cc2)nn(-c2cnn(C)c2)c1=O showed an IC50 (second compound 0.1 µM) greater than 100 nM, an IC50 (second compound 0.316 µM) greater than 100 nM and an IC50 (second compound 1 µM) greater than 100 nM. For the same compound, the IC50 (second compound 3.16 µM) was greater than 100 nM, the IC50 (second compound 10 µM) was greater than 100 nM and the viability, T/C (second compound 0.1 µM, first compound 0.000316 µM) was 72.7%. The viability, T/C (second compound 0.1 µM, first compound 0.001 µM) was 96.6%, the viability, T/C (second compound 0.1 µM, first compound 0.00316 µM) was 77.3% and the viability, T/C (second compound 0.1 µM, first compound 0.01 µM) was 57.7%. The viability, T/C [1] was 55.6%, the viability, T/C [2] was 93% and the viability, T/C (second compound 0.316 µM, first compound 0.000316 µM) was 90.4%. For the same compound, the viability, T/C (second compound 0.316 µM, first compound 0.001 µM) was 92.8%, the viability, T/C (second compound 0.316 µM, first compound 0.00316 µM) was 78.6% and the viability, T/C (second compound 0.316 µM, first compound 0.01 µM) was 75.8%. For the same compound, the viability, T/C [7] was 86%, the viability, T/C [8] was 98.7% and the viability, T/C (second compound 1 µM, first compound 0.000316 µM) was 59.7%. The viability, T/C (second compound 1 µM, first compound 0.001 µM) was 92.4%, the viability, T/C (second compound 1 µM, first compound 0.00316 µM) was 75.1% and the viability, T/C (second compound 1 µM, first compound 0.01 µM) was 59.8%. It also gave a viability, T/C [13] of 87.6%, a viability, T/C [14] of 89.9% and a viability, T/C (second compound 3.16 µM, first compound 0.000316 µM) of 77.3%. It also gave a viability, T/C (second compound 3.16 µM, first compound 0.001 µM) of 51%, a viability, T/C (second compound 3.16 µM, first compound 0.00316 µM) of 123% and a viability, T/C (second compound 3.16 µM, first compound 0.01 µM) of 82.8%. The viability, T/C [19] was 50.2%, the viability, T/C [20] was 69.2% and the viability, T/C (second compound 10 µM, first compound 0.000316 µM) was 78.6%. The viability, T/C (second compound 10 µM, first compound 0.001 µM) was 68.8%, the viability, T/C (second compound 10 µM, first compound 0.00316 µM) was 70.6% and the viability, T/C (second compound 10 µM, first compound 0.01 µM) was 72%. It also gave a viability, T/C [25] of 55.7% and a viability, T/C [26] of 80.9%.

For NS(=O)(=O)OCC1CC(n2ccc3c(NC4CCc5ccccc54)ncnc32)CC1O (stereo not given) + CC(CO)NC(=O)c1cc(-c2ccc(Cl)cc2)nn(-c2cnn(C)c2)c1=O, the IC50 (second compound 0.1 µM) was 788 nM, the IC50 (second compound 0.316 µM) was 1500 nM and the IC50 (second compound 1 µM) was 1910 nM. For the same compound, the IC50 (second compound 3.16 µM) was 10000 nM, the IC50 (second compound 10 µM) was 1170 nM and the viability, T/C [1] was 96.4%. It also gave a viability, T/C [2] of 90.6%, a viability, T/C [3] of 87.1% and a viability, T/C [4] of 40.6%. The viability, T/C [5] was 21%, the viability, T/C [6] was 27.2% and the viability, T/C [7] was 55%. For the same compound, the viability, T/C [8] was 94%, the viability, T/C [9] was 63.4% and the viability, T/C [10] was 61.5%. For the same compound, the viability, T/C [11] was 28.2%, the viability, T/C [12] was 29.2% and the viability, T/C [13] was 64.6%. For the same compound, the viability, T/C [14] was 55.6%, the viability, T/C [15] was 109% and the viability, T/C [16] was 67.6%. It also gave a viability, T/C [17] of 30.7%, a viability, T/C [18] of 42% and a viability, T/C [19] of 75.8%. For the same compound, the viability, T/C [20] was 108%, the viability, T/C [21] was 55.6% and the viability, T/C [22] was 65.9%. The viability, T/C [23] was 27%, the viability, T/C [24] was 72.7% and the viability, T/C [25] was 72.3%. It also gave a viability, T/C [26] of 109%, a viability, T/C [27] of 80.1% and a viability, T/C [28] of 51.1%. It also gave a viability, T/C [29] of 32.4% and a viability, T/C [30] of 16.4%.

Compound O=C(C=Cc1cccc(S(=O)(=O)Nc2ccccc2)c1)NO + CC(CO)NC(=O)c1cc(-c2ccc(Cl)cc2)nn(-c2cnn(C)c2)c1=O has an IC50 (second compound 0.1 µM) of 3570 nM, an IC50 (second compound 0.316 µM) of 3500 nM and an IC50 (second compound 1 µM) of 793 nM. The IC50 (second compound 3.16 µM) was 1510 nM, the IC50 (second compound 10 µM) was 1820 nM and the viability, T/C [1] was 88.5%. It also gave a viability, T/C [2] of 96.9%, a viability, T/C [3] of 78.1% and a viability, T/C [4] of 86.6%. The viability, T/C [5] was 55%, the viability, T/C [6] was 7.64% and the viability, T/C [7] was 95.2%. For the same compound, the viability, T/C [8] was 87.6%, the viability, T/C [9] was 85.7% and the viability, T/C [10] was 105%. For the same compound, the viability, T/C [11] was 54.7%, the viability, T/C [12] was 1.72% and the viability, T/C [13] was 75.3%. It also gave a viability, T/C [14] of 62.7%, a viability, T/C [15] of 113% and a viability, T/C [16] of 41.5%. For the same compound, the viability, T/C [17] was 41.6%, the viability, T/C [18] was 1.68% and the viability, T/C [19] was 104%. For the same compound, the viability, T/C [20] was 66%, the viability, T/C [21] was 67.6% and the viability, T/C [22] was 69.5%. The viability, T/C [23] was 36.6%, the viability, T/C [24] was 6.34% and the viability, T/C [25] was 101%. It also gave a viability, T/C [26] of 89.5%, a viability, T/C [27] of 101% and a viability, T/C [28] of 54%. The viability, T/C [29] was 40.9% and the viability, T/C [30] was 1.34%.
